What was measured:
Jurkat-cells = assay: Cell adherence to polystyrene culture dishes in the presence of various substances, with trypan blue vitality check (Jurkat)
Experimental: (§1) 50 μl of the cell suspension described above were added.
(§2) The samples were incubated for 30 minutes at 37° C. The supernatant with non-adhered cells was removed and replaced by buffer. The adherence was qualitatively evaluated (refer to table 3). The cells in both supernatant and the wells were stained with trypanblue solution (0.2%, SIGMA Aldrich GmbH, Steinheim) in order to examine the vitality of the cells.

U937-cells = assay: Cell adherence to polystyrene culture dishes in the presence of various substances, with trypan blue vitality check (U937); conditions: for U937 Adherence: 30 minutes at 37° C., polystyrene 24-well plate
Experimental: as §1, §2

Substance | Jurkat Adherence (Jurkat-cells; 0.1% in PBS, 30 minutes at 37° C., polystyrene 24-well plate) | U937 Adherence (U937-cells; 0.1% in PBS) | U937 Adherence (U937-cells; 0.5% in PBS) | Jurkat Vitality (Jurkat-cells) [%] | U937 Vitality (U937-cells) [%]
Bovine serum albumin [BSA] | 99 | 999 | 99 | – | –
polyethylene glycol 5,000 [PEG 5,000] | – | – | – | 100 | 100
polyvinyl alcohol [PVA 30,000–70,000] | – | – | – | 97 | 98
polyvinyl pyrrolidone 15 [PVP 15] | – | – | – | 100 | 100
polyvinyl pyrrolidone 25 [PVP 25] | – | – | – | 100 | 100

— patent publication US7300793B2, “Method for preventing the adhesion of particles” (Evotec Technologies GmbH, priority 2001, dated 2007)
